A word on the IC50: it is the point on the concentration scale where inhibition reaches its midpoint.

This note sets out measurements from patent US8198273B2, “Compounds and methods for kinase modulation, and indications therefor” (Plexxikon Inc., priority 2009, dated 2012).

The target of data set [1] is B-Raf (Homo sapiens, UniProt P15056). The experiment in a line: B-Raf biochemical kinase inhibition (AlphaScreen, biotin-MEK1 substrate). Conditions: 100 μM ATP. The procedure, abridged: (§1)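 Serial 1:3 dilutions of compound (0.1 mM DMSO stock, eight points) were added first, then ATP to start the reaction at 100 μM final.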
Sequence of B-Raf (P15056 whole entry): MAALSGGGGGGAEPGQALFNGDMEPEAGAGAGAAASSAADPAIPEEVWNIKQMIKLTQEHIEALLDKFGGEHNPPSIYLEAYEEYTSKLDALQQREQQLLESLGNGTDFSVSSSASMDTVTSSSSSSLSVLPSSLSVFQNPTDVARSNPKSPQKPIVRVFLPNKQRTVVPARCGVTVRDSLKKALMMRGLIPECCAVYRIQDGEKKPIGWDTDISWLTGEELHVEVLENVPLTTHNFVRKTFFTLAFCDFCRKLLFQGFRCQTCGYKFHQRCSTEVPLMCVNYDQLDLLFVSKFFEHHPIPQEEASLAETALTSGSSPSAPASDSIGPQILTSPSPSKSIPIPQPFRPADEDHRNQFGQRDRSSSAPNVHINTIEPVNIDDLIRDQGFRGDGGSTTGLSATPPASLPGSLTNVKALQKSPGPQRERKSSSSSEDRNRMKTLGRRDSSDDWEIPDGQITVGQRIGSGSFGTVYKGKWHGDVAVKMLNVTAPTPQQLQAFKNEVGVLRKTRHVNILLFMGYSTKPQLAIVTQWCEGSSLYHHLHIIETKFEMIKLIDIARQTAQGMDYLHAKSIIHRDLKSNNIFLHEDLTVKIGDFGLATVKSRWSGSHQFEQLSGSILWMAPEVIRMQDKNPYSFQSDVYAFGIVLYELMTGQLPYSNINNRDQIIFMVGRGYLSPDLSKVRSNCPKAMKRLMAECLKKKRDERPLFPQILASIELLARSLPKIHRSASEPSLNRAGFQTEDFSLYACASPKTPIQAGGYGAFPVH
(In Alpha technology, singlet oxygen from a donor bead excites a nearby acceptor bead.)

The target of data set [2] is c-Raf-1 (Homo sapiens, UniProt P04049). The experiment in a line: c-Raf-1 biochemical kinase inhibition (AlphaScreen, biotin-MEK1 substrate). The settings on record: 100 μM ATP. The essentials:
as §1

Data set [3] addresses CYP3A4(BQ) (Homo sapiens, UniProt P08684). As to the kind of experiment: CYP3A4(BQ) inhibition (fluorescent substrate). It is filed as in vitro ADME. The settings on record: read-out: Cyp IC50 3A4(BQ). The essentials:
(§2)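 Compound, from a 100 mM DMSO stock and diluted 1:1 over 10 points in co-factor mix, was incubated at 37° C with enzyme and a known substrate. Decrease in fluorescent product against concentration gave the IC50.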

Data set [4] has as its target CYP3A4(BFC) (Homo sapiens, UniProt P08684). As to the kind of experiment: CYP3A4(BFC) inhibition (fluorescent substrate). It is filed as in vitro ADME. Conditions: read-out: Cyp IC50 3A4(BFC). The essentials: as §2
A short description of data set [5]: Relative solubility by turbidity in aqueous buffers of varying pH. Conditions: for turbidity threshold (L, M, H) 7.4: HEPES pH 7.4; for turbidity threshold (L, M, H) 4.5: SIF pH 4.5; for turbidity threshold (L, M, H) 6.8: SIF pH 6.8; for turbidity threshold (L, M, H) 1.4: buffer pH 1.4 (SGF). The data set is classed as physicochemical. The procedure, abridged: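 Turbidity endpoint: concentration where optical density at 490, 535 and 650 nm exceeds 0.01, three-wavelength average used. Buffers at pH 1.5, 4.5, 6.8 and 7.4; DMSO serial dilutions of 25 mM stock spiked 1 μL into 99 μL buffer. Low <31.3, moderate 31.3–250, high >250 μM.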

Sequence of c-Raf-1 (P04049 whole entry): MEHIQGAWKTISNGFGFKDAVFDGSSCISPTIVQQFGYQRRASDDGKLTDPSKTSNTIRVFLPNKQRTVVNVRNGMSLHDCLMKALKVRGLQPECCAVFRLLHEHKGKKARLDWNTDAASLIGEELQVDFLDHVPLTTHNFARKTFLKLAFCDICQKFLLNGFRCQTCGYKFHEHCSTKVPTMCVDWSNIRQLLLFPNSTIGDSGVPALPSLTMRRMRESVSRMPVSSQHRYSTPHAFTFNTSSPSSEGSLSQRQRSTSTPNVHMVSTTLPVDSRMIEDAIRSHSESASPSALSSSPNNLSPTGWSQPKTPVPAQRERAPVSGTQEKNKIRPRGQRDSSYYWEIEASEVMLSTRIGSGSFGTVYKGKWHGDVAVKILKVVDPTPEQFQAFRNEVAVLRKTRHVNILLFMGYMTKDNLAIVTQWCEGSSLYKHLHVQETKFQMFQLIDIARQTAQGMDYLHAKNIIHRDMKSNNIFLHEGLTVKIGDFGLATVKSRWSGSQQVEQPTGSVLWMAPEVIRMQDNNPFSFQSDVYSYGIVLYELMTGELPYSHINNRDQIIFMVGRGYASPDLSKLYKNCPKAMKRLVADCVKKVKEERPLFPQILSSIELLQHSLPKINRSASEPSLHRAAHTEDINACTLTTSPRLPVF
Sequence of CYP3A4(BFC) (P08684 whole entry): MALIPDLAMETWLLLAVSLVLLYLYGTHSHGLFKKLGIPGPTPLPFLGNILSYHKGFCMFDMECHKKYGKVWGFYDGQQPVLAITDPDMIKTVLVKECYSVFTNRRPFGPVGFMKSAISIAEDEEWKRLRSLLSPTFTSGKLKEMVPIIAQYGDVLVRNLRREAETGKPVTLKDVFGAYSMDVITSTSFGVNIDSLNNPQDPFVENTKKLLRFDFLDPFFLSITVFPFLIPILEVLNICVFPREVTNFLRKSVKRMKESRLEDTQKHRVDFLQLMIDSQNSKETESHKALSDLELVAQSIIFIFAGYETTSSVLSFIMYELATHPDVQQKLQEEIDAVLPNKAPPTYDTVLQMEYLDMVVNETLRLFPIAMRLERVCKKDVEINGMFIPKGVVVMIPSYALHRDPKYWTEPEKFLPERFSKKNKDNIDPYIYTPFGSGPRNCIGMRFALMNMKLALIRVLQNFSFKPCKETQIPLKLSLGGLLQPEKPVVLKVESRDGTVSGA
Sequence of CYP3A4(BQ) (P08684 whole entry): as above

Take `COc1ccnc2[nH]cc(C(=O)c3c(F)ccc(NS(=O)(=O)c4cccc(F)c4)c3F)c12` [P-2023, N-[2,4-Difluoro-3-(4-methoxy-1H-pyrrolo[2,3-b]pyridine-3-carbonyl)-phenyl]-3-fluoro-benzenesulfonamide]: the IC50 in data set [1] was less than 0.01 µM. This compound also gave an IC50 in data set [2] of less than 0.01 µM. Also, the IC50 in data set [3] was less than 5 µM. Moreover, the IC50 in data set [4] lay in the range of 5 to 10 µM. For the same compound, in data set [5], the “turbidity threshold (L, M, H) 7.4” value is “M (moderate solubility if the threshold concentration is 31.3 μM to 250 μM)”; the “turbidity threshold (L, M, H) 4.5” value is on record as “M (moderate solubility if the threshold concentration is 31.3 μM to 250 μM)”; the “turbidity threshold (L, M, H) 6.8” value is recorded as “M (moderate solubility if the threshold concentration is 31.3 μM to 250 μM)”; the “turbidity threshold (L, M, H) 1.4” value is “H (high solubility if the threshold concentration is >250 μM)”.
With `Cc1cnc2[nH]cc(C(=O)c3c(F)ccc(NS(=O)(=O)c4c(F)cccc4F)c3F)c2c1` [P-2024, N-[2,4-Difluoro-3-(5-methyl-1H-pyrrolo[2,3-b]pyridine-3-carbonyl)-phenyl]-2,6-difluoro-benzenesulfonamide], the IC50 in data set [1] was less than 0.1 µM. The same compound returned an IC50 in data set [2] of less than 0.01 µM. Also, in data set [3], the IC50 was more than 10 µM. Besides, the IC50 in data set [4] is more than 10 µM. Besides, in data set [5], the “turbidity threshold (L, M, H) 7.4” value was “M (moderate solubility if the threshold concentration is 31.3 μM to 250 μM)”; the “turbidity threshold (L, M, H) 4.5” value is “L (low solubility if the threshold concentration is <31.3 04)”; the “turbidity threshold (L, M, H) 6.8” value is reported as “M (moderate solubility if the threshold concentration is 31.3 μM to 250 μM)”; the “turbidity threshold (L, M, H) 1.4” value is given as “M (moderate solubility if the threshold concentration is 31.3 μM to 250 μM)”.
For the compound `COc1ncc(-c2cnc3[nH]cc(C(=O)c4c(F)ccc(NS(=O)(=O)c5ccccc5F)c4F)c3c2)cn1` [P-2041, N-{2,4-Difluoro-3-[5-(2-methoxy-pyrimidin-5-yl)-1H-pyrrolo[2,3-b]pyridine-3-carbonyl]-phenyl}-2-fluoro-benzenesulfonamide], in data set [1], the IC50 was less than 0.01 µM. This compound also returned an IC50 in data set [2] of less than 0.01 µM. Moreover, the IC50 in data set [3] was more than 10 µM. Also, in data set [4], the IC50 was more than 10 µM. Also, in data set [5], the “turbidity threshold (L, M, H) 7.4” value is “L (low solubility if the threshold concentration is <31.3 04)”; the “turbidity threshold (L, M, H) 4.5” value is given as “L (low solubility if the threshold concentration is <31.3 04)”; the “turbidity threshold (L, M, H) 6.8” value is recorded as “L (low solubility if the threshold concentration is <31.3 04)”; the “turbidity threshold (L, M, H) 1.4” value is reported as “L (low solubility if the threshold concentration is <31.3 04)”.
`COc1ncc(-c2cnc3[nH]cc(C(=O)c4c(F)ccc(NS(=O)(=O)c5cc(F)ccc5F)c4F)c3c2)cn1` [P-2042, N-{2,4-Difluoro-3-[5-(2-methoxy-pyrimidin-5-yl)-1H-pyrrolo[2,3-b]pyridine-3-carbonyl]-phenyl}-2,5-difluoro-benzenesulfonamide] registered an IC50 in data set [1] of less than 0.01 µM. For the same compound, the IC50 in data set [2] is less than 0.01 µM. The IC50 in data set [3] was more than 10 µM. Moreover, in data set [4], the IC50 was more than 10 µM. Moreover, in data set [5], the “turbidity threshold (L, M, H) 7.4” value is given as “L (low solubility if the threshold concentration is <31.3 04)”; the “turbidity threshold (L, M, H) 4.5” value was “L (low solubility if the threshold concentration is <31.3 04)”; the “turbidity threshold (L, M, H) 6.8” value is recorded as “L (low solubility if the threshold concentration is <31.3 04)”; the “turbidity threshold (L, M, H) 1.4” value is “L (low solubility if the threshold concentration is <31.3 04)”.
Compound `COc1ncc(-c2cnc3[nH]cc(C(=O)c4c(F)ccc(NS(=O)(=O)c5c(F)cccc5F)c4F)c3c2)cn1` [P-2043, N-{2,4-Difluoro-3-[5-(2-methoxy-pyrimidin-5-yl)-1H-pyrrolo[2,3-b]pyridine-3-carbonyl]-phenyl}-2,6-difluoro-benzenesulfonamide] came in with an IC50 in data set [1] of less than 0.01 µM. The IC50 in data set [2] is less than 0.01 µM. Further, the IC50 in data set [3] was more than 10 µM. In addition, in data set [4], the IC50 is more than 10 µM. In addition, in data set [5], the “turbidity threshold (L, M, H) 7.4” value is reported as “M (moderate solubility if the threshold concentration is 31.3 μM to 250 μM)”; the “turbidity threshold (L, M, H) 4.5” value is “L (low solubility if the threshold concentration is <31.3 04)”; the “turbidity threshold (L, M, H) 6.8” value is “L (low solubility if the threshold concentration is <31.3 04)”; the “turbidity threshold (L, M, H) 1.4” value is listed as “L (low solubility if the threshold concentration is <31.3 04)”.
As to `COc1ncc(-c2cnc3[nH]cc(C(=O)c4c(F)ccc(NS(=O)(=O)c5cccc(F)c5)c4F)c3c2)cn1` [P-2045, N-{2,4-Difluoro-3-[5-(2-methoxy-pyrimidin-5-yl)-1H-pyrrolo[2,3-b]pyridine-3-carbonyl]-phenyl}-3-fluoro-benzenesulfonamide], the IC50 is less than 0.01 µM in data set [1], less than 0.01 µM in data set [2], more than 10 µM in data set [3] and more than 10 µM in data set [4]. Also, the “turbidity threshold (L, M, H) 7.4” value in data set [5] is on record as “M (moderate solubility if the threshold concentration is 31.3 μM to 250 μM)”. Besides, the “turbidity threshold (L, M, H) 4.5” value in data set [5] is listed as “L (low solubility if the threshold concentration is <31.3 04)”. For the same compound, in data set [5], the “turbidity threshold (L, M, H) 6.8” value was “L (low solubility if the threshold concentration is <31.3 04)”. The “turbidity threshold (L, M, H) 1.4” value in data set [5] is given as “L (low solubility if the threshold concentration is <31.3 04)”.
For the compound `N#Cc1cnc2[nH]cc(C(=O)c3cccc(NS(=O)(=O)c4ccccc4F)c3F)c2c1` [P-2051, N-[3-(5-Cyano-1H-pyrrolo[2,3-b]pyridine-3-carbonyl)-2-fluoro-phenyl]-2-fluoro-benzenesulfonamide], the IC50 in data set [1] is less than 0.1 µM; in data set [2], less than 0.1 µM; in data set [3], more than 10 µM; in data set [4], more than 10 µM. Besides, the “turbidity threshold (L, M, H) 7.4” value in data set [5] was “M (moderate solubility if the threshold concentration is 31.3 μM to 250 μM)”. Besides, the “turbidity threshold (L, M, H) 4.5” value in data set [5] is given as “M (moderate solubility if the threshold concentration is 31.3 μM to 250 μM)”. For the same compound, the “turbidity threshold (L, M, H) 6.8” value in data set [5] is listed as “M (moderate solubility if the threshold concentration is 31.3 μM to 250 μM)”. In addition, in data set [5], the “turbidity threshold (L, M, H) 1.4” value is recorded as “M (moderate solubility if the threshold concentration is 31.3 μM to 250 μM)”.
As to `N#Cc1cnc2[nH]cc(C(=O)c3cccc(NS(=O)(=O)c4cc(F)ccc4F)c3F)c2c1` [P-2052, N-[3-(5-Cyano-1H-pyrrolo[2,3-b]pyridine-3-carbonyl)-2-fluoro-phenyl]-2,5-difluoro-benzenesulfonamide], the IC50 in data set [1] was less than 0.1 µM. The compound also returned an IC50 in data set [2] of less than 0.01 µM. In data set [3], the IC50 is more than 10 µM. In addition, in data set [4], the concentration for half-maximal inhibition (IC50) lay in the range of 5 to 10 µM. Moreover, in data set [5], the “turbidity threshold (L, M, H) 7.4” value is listed as “M (moderate solubility if the threshold concentration is 31.3 μM to 250 μM)”; the “turbidity threshold (L, M, H) 4.5” value is “L (low solubility if the threshold concentration is <31.3 04)”; the “turbidity threshold (L, M, H) 6.8” value was “M (moderate solubility if the threshold concentration is 31.3 μM to 250 μM)”; the “turbidity threshold (L, M, H) 1.4” value is given as “L (low solubility if the threshold concentration is <31.3 04)”.
Take `N#Cc1cnc2[nH]cc(C(=O)c3cccc(NS(=O)(=O)c4cccc(F)c4)c3F)c2c1` [P-2053, N-[3-(5-Cyano-1H-pyrrolo[2,3-b]pyridine-3-carbonyl)-2-fluoro-phenyl]-3-fluoro-benzenesulfonamide]: the half-inhibitory concentration (IC50) is less than 0.01 µM in data set [1], less than 0.01 µM in data set [2], more than 10 µM in data set [3] and more than 10 µM in data set [4]. In addition, the “turbidity threshold (L, M, H) 7.4” value in data set [5] was “M (moderate solubility if the threshold concentration is 31.3 μM to 250 μM)”. The “turbidity threshold (L, M, H) 4.5” value in data set [5] was “L (low solubility if the threshold concentration is <31.3 04)”. In addition, the “turbidity threshold (L, M, H) 6.8” value in data set [5] is on record as “M (moderate solubility if the threshold concentration is 31.3 μM to 250 μM)”. The “turbidity threshold (L, M, H) 1.4” value in data set [5] was “L (low solubility if the threshold concentration is <31.3 04)”.
Take `CCCS(=O)(=O)Nc1ccc(F)c(C(=O)c2c[nH]c3ncc(-c4ccc(C(=O)NCC)nc4)cc23)c1F` [P-2151, 5-{3-[2,6-Difluoro-3-(propane-1-sulfonylamino)-benzoyl]-1H-pyrrolo[2,3-b]pyridin-5-yl}-pyridine-2-carboxylic acid ethylamide]: the IC50 in data set [1] is less than 0.01 µM. The compound also had an IC50 in data set [2] of less than 0.01 µM. Moreover, in data set [3], the IC50 is more than 10 µM. The IC50 in data set [4] is more than 10 µM. In data set [5], the “turbidity threshold (L, M, H) 7.4” value is on record as “L (low solubility if the threshold concentration is <31.3 04)”; the “turbidity threshold (L, M, H) 4.5” value is on record as “L (low solubility if the threshold concentration is <31.3 04)”; the “turbidity threshold (L, M, H) 6.8” value was “L (low solubility if the threshold concentration is <31.3 04)”; the “turbidity threshold (L, M, H) 1.4” value is on record as “L (low solubility if the threshold concentration is <31.3 04)”.
As to `CCCS(=O)(=O)Nc1ccc(F)c(C(=O)c2c[nH]c3ncc(-c4ccc(F)nc4)cc23)c1F` [P-2155, Propane-1-sulfonic acid {2,4-difluoro-3-[5-(6-fluoro-pyridin-3-yl)-1H-pyrrolo[2,3-b]pyridine-3-carbonyl]-phenyl}-amide], the IC50 in data set [1] was less than 0.01 µM; in data set [2], less than 0.01 µM; in data set [3] it was more than 10 µM; in data set [4], more than 10 µM. Besides, the “turbidity threshold (L, M, H) 7.4” value in data set [5] is “L (low solubility if the threshold concentration is <31.3 04)”. In addition, the “turbidity threshold (L, M, H) 4.5” value in data set [5] is reported as “L (low solubility if the threshold concentration is <31.3 04)”. In addition, in data set [5], the “turbidity threshold (L, M, H) 6.8” value is given as “L (low solubility if the threshold concentration is <31.3 04)”. Moreover, the “turbidity threshold (L, M, H) 1.4” value in data set [5] is given as “L (low solubility if the threshold concentration is <31.3 04)”.
